This is an account of results in US12473303B2, “4-[[(7-aminopyrazolo[1,5-a]pyrimidin-5-yl)amino methyl]piperidin-3-ol compounds and their therapeutic use” (CARRICK THERAPEUTICS LIMITED, priority 2019, dated 2025).

Assay [1] deals with Cyclin K. Further details: key to Cyclin K Degrader Activity: −: No Cyclin K degradation.; +: Weak Cyclin K degradation.; ++: Moderate Cyclin K degradation.; +++: Strong Cyclin K degradation. As to conditions: cited from earlier work; for Cyclin K degradation (in words): literature.
The test system of assay [2] is Cyclin K. In words: Western blotting analysis of Cyclin K depletion in cell culture. The class given is cell-based. As to conditions: A673 cells; for Cyclin K Degrader Activity: Table 2, 1 μM compound, 2 hours. On the procedure:
Western Blotting Analysis of Cyclin K Depletion in Cell Culture A673 cells were incubated for 2 hours with of 1 μM compound in presence or in absence of 10 μM proteasome inhibitor MG132 (Sigma Aldrich) or NAE (NEDD8 activating enzyme) inhibitor […] (Cell Signalling Technologies). Cells were washed 2× with cold Phosphate Buffered Saline (PBS, Sigma Aldrich), followed by the addition of lysis buffer for 15 minutes on ice before harvesting and centrifugation.
Protein content in the cell lysate was assessed by BCA assay (Thermo Fisher). Samples were then prepared with 4× Laemmlli Buffer (Bio-Rad) and heated to 95° C. for 5 minutes. Each sample was loaded onto a Mini-PROTEAN TGX Stain Free Gel (Bio-Rad) at 50 μg protein/well. SDS-PAGE was performed and then protein was transferred onto a PVDF membrane using a Trans-Blot® Turbo™ Midi PVDF Transfer Pack (Bio-Rad. Membranes were blocked in TBS-T (Invitrogen), 5% (w/v) milk powder (Marvel) overnight at 4° C.
Membranes were incubated with anti-CCNK antibody (rabbit) primary antibody (Abcam) and anti-GAPDH antibody (rabbit) in TBS-T for 2 hours. Membranes were then washed three times with TBS-T, before incubation secondary goat anti-rabbit HRP antibody (Cell Signalling Technologies) followed by 3× washing in TBS-T. Blots were imaged using a Chemidoc imager (Bio-Rad). Cyclin K depletion was measured as the observable drop in band intensity in compound treated samples relative to proteasome-inhibitor treated samples, measured by densitometry (Image Lab).

The next assay concerns the target Human CDK12 wt/CycK (Homo sapiens (Human), UniProt Q9NYV4). In words: Radiometric protein kinase assay (33PanQinase Activity Assay), CDK12. The assay is classed as biochemical. Conditions: for CDK7/CDK12: ratio greater than 1 indicated selectivity for CDK12. In outline:
(§1)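 Radiometric 33P assay: ATP, test compound (in 10% DMSO) and premixed substrate/enzyme incubated 60 min at 30 °C, stopped with 2% H3PO4. 33Pi incorporation counted by scintillation; least-squares curve fit.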

Another assay deals with Human CDK7/CycH/MAT1 (Homo sapiens (Human), UniProt P50613). As to the kind of experiment: Radiometric protein kinase assay (33PanQinase Activity Assay), CDK7. The assay is classed as biochemical. As to conditions: Table 1; ATP 3 μM. In outline: as §1
The next assay deals with A673 cells. As to the kind of experiment: Cellular potency in A673 cells. As to conditions: for IC50: Homo sapiens, A673 cells. The class given is cell-based.
The subject of the next assay is HeLa and A549 cells. Conditions: Table 2, cited from earlier work.
Setting [3] is: Table 1, ATP 0.3 μM, read-out: CDK12 IC50.
The mark [4] stands for this setting: Table 2, CDK12 kinase activity, read-out: Biochemical Potency IC50.
[5] abbreviates: Table 3, CDK12 kinase activity, read-out: Biochemical Potency IC50.
Where [6] appears, read: Table 3, ratio >0.9 is an indicator of Cyclin K degradation.

“Also recorded” adds a separate entry of the source. Like-named read-outs stand apart in the source and are kept apart here.

Chain of Human CDK7/CycH/MAT1 (P50613 whole entry): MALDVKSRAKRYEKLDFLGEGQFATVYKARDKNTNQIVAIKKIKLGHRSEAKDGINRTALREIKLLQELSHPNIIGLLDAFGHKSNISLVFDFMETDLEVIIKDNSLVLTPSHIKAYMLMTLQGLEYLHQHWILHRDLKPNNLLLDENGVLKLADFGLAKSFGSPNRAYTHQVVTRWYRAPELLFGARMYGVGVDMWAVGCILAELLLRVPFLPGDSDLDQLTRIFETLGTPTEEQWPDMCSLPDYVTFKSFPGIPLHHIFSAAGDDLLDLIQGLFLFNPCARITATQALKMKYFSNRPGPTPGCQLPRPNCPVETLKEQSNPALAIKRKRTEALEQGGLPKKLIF
Chain of Human CDK7/CycH/MAT1 (P51946 whole entry partner): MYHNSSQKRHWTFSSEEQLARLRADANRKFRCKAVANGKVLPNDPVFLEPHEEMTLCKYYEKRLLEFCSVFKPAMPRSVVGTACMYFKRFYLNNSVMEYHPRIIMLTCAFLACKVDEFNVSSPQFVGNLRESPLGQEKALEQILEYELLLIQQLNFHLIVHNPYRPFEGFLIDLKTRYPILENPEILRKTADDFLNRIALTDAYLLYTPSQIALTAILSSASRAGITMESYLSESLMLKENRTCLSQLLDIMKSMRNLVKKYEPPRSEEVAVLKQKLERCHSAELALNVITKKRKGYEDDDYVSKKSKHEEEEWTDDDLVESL
Chain of Human CDK7/CycH/MAT1 (P51948 whole entry partner): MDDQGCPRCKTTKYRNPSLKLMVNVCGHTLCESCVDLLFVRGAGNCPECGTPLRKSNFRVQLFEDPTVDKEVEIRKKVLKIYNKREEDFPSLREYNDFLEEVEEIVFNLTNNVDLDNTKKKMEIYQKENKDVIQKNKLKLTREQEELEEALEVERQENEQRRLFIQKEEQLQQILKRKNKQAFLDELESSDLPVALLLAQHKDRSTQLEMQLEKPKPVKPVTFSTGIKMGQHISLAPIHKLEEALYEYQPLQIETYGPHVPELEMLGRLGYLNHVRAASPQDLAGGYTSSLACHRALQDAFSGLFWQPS
Chain of Human CDK12 wt/CycK (Q9NYV4 whole entry): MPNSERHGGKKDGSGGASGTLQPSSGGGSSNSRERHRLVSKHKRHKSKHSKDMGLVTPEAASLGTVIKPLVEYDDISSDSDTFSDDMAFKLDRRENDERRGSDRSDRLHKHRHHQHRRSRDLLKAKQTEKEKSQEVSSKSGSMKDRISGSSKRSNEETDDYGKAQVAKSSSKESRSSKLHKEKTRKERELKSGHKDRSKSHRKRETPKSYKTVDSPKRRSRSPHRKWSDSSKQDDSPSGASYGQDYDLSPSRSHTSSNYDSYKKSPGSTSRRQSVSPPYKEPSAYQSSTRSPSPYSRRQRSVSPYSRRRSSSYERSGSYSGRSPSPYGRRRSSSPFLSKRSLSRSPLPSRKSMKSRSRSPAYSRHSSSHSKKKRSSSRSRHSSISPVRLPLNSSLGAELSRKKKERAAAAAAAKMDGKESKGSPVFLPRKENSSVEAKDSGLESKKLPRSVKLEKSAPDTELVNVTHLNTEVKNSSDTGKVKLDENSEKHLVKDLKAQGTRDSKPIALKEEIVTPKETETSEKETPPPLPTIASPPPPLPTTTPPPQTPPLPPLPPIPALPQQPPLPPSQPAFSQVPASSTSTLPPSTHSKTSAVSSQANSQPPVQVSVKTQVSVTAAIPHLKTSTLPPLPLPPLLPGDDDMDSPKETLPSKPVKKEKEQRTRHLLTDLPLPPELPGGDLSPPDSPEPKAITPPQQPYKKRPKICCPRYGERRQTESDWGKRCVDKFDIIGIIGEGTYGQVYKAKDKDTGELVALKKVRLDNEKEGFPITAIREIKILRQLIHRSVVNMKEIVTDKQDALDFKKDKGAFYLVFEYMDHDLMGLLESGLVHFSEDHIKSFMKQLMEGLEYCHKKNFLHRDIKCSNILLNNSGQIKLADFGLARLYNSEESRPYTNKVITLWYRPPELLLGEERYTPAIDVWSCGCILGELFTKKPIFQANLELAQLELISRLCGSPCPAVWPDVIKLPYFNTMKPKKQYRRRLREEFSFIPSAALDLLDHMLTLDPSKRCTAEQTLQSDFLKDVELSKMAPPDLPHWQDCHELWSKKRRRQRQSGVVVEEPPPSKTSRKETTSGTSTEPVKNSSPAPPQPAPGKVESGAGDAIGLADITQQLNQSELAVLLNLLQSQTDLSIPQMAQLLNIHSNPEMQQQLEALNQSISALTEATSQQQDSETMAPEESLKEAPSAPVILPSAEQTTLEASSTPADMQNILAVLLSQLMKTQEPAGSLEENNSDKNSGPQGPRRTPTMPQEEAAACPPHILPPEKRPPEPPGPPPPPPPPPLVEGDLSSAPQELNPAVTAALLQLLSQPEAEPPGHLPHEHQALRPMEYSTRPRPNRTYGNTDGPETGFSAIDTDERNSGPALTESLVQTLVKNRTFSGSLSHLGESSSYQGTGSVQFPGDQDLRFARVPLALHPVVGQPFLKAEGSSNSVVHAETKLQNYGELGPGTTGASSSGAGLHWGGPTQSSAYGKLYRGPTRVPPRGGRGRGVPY
Chain of Human CDK12 wt/CycK (O75909 whole entry partner): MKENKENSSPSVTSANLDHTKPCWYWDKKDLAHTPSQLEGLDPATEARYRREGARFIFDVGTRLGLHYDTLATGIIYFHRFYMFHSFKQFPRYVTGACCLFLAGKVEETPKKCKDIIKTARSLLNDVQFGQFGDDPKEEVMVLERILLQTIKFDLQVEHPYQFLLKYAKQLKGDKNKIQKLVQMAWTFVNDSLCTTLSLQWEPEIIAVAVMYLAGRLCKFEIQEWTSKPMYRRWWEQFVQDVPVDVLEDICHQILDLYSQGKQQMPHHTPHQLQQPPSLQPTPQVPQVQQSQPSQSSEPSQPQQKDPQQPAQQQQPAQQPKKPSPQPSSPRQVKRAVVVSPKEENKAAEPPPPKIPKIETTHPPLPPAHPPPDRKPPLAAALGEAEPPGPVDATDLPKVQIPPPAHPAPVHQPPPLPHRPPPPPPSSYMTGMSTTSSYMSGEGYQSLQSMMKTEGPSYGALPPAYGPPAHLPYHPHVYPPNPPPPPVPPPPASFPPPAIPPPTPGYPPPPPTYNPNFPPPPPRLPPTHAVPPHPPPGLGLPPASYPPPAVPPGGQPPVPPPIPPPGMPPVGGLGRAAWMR

As to `CC[C@H](CO)Nc1nc(NCc2ccc(-c3ccccn3)cc2)c2ncn(C(C)C)c2n1` [CR8], the “Cyclin K degradation (in words)” value in the assay on Cyclin K [1] is given as “cause Cyclin K degradation”.

On to `CCc1cnn2c(NCc3ccc[n+]([O-])c3)cc(N3CCCC[C@H]3CCO)nc12` [Dinaciclib, reference compound], for which, in the assay on Cyclin K [2], the “Cyclin K degradation (in words)” value is recorded as “not cyclin K degraders” and the “Cyclin K Degrader Activity” value is listed as “−”.

With `Cc1cccn2cc(CNc3cc(NC[C@H]4CCNC[C@@H]4O)nc4c(C(C)C)cnn34)nc12` [H-APPAMP-004, (3R,4R)-4-(((3-isopropyl-7-(((8-methylimidazo[1,2-a]pyridin-2-yl)methyl)amino)pyrazolo[1,5-a]pyrimidin-5-yl)amino)methyl)piperidin-3-ol], the IC50 is 51.7 nM on Human CDK12 wt/CycK (setting [3]); 55 nM at Human CDK12 wt/CycK (setting [4]); 51 nM at Human CDK12 wt/CycK (setting [5]); 305 nM against Human CDK7/CycH/MAT1; 8.9 nM in the assay with A673 cells (A673, Table 2); 12 nM in the assay on A673 cells (A673, Table 3). Besides, at Human CDK12 wt/CycK (Table 1), the CDK7/CDK12 was 5.90. In addition, the “Cyclin K Degrader Activity” value in the assay on Cyclin K [2] is “++”. The “Ratio of Biochemical Potency: Cellular Potency” value (shortened to “Ratio of Biochemical Potency”) with A673 cells (Table 2) is on record as 6.2; in the assay with A673 cells (setting [6]), 4.2.

`Cc1cccc2nc(CNc3cc(NC[C@H]4CCNC[C@@H]4O)nc4c(C5CC5)cnn34)cn12` [H-APPAMP-025, (3R,4R)-4-(((3-cyclopropyl-7-(((5-methylimidazo[1,2-a]pyridin-2-yl)methyl)amino)pyrazolo[1,5-a]pyrimidin-5-yl)amino)methyl)piperidin-3-ol]: the IC50 stood at 36 nM at Human CDK12 wt/CycK (setting [3]); 36 nM on Human CDK12 wt/CycK (setting [4]); 36 nM at Human CDK12 wt/CycK (setting [5]); 334 nM against Human CDK7/CycH/MAT1; 1.5 nM in the assay with A673 cells (A673, Table 2); 1.5 nM in the assay on A673 cells (A673, Table 3). For the same compound, the CDK7/CDK12 at Human CDK12 wt/CycK (Table 1) was 9.3. In addition, the “Cyclin K Degrader Activity” value in the assay on Cyclin K [2] is “+++”. Further, the “Ratio of Biochemical Potency” value in the assay with A673 cells (Table 2) and in the assay on A673 cells (setting [6]) was 23 throughout.

Consider `Cc1cc(C)n2cc(CNc3cc(NC[C@H]4CCNC[C@@H]4O)nc4c(C(C)C)cnn34)nc2n1` [H-APPAMP-043, (3R,4R)-4-(((7-(((5,7-dimethylimidazo[1,2-a]pyrimidin-2-yl)methyl)amino)-3-isopropylpyrazolo[1.5-a]pyrimidin-5-yl)amino)methyl)piperidin-3-ol], for which the IC50 at Human CDK12 wt/CycK (setting [3]) was 21 nM; at Human CDK12 wt/CycK (setting [4]) it was 21 nM; at Human CDK12 wt/CycK (setting [5]), 21 nM; against Human CDK7/CycH/MAT1 it was 484 nM; with A673 cells (A673, Table 2), 340 nM; in the assay with A673 cells (A673, Table 3), 340 nM. The CDK7/CDK12 on Human CDK12 wt/CycK (Table 1) was 23. Also, the “Cyclin K Degrader Activity” value in the assay with Cyclin K [2] is reported as “−”. The “Ratio of Biochemical Potency” value in the assay on A673 cells (Table 2) and in the assay with A673 cells (setting [6]) was 0.06 throughout.

For `CC(C)c1cnn2c(NCc3nc4cc(C5CC5)ccn4n3)cc(NC[C@H]3CCNC[C@@H]3O)nc12` [H-APPAMP-044, (3R,4R)-4-(((7-(((7-cyclopropyl-[1,2,4]triazolo[1,5-a]pyridin-2-yl)methyl)amino)-3-isopropylpyrazolo[1,5-a]pyrimidin-5-yl)amino)methyl)piperidin-3-ol], the IC50 was 40 nM at Human CDK12 wt/CycK (setting [3]); 40 nM on Human CDK12 wt/CycK (setting [4]); 40 nM on Human CDK12 wt/CycK (setting [5]); 269 nM at Human CDK7/CycH/MAT1; 44 nM in the assay on A673 cells (A673, Table 2); 44 nM in the assay on A673 cells (A673, Table 3). In addition, the CDK7/CDK12 at Human CDK12 wt/CycK (Table 1) was 6.7. For the same compound, in the assay with Cyclin K [2], the “Cyclin K Degrader Activity” value is reported as “+”. Besides, the “Ratio of Biochemical Potency” value in the assay on A673 cells (Table 2) and in the assay with A673 cells (setting [6]) was 0.91 in each case.

Regarding `O[C@H]1CNCC[C@@H]1CNc1cc(NCc2cn3ccc(-c4ccccc4)cc3n2)n2ncc(C3CC3)c2n1` [H-APPAMP-045, (3R,4R)-4-(((3-cyclopropyl-7-(((7-phenylimidazo[1,2-a]pyridin-2-yl)methyl)amino)pyrazolo[1,5-a]pyrimidin-5-yl)amino)methyl)piperidin-3-ol], the IC50 amounted to 18 nM at Human CDK12 wt/CycK (setting [3]); 18 nM on Human CDK12 wt/CycK (setting [4]); 18 nM at Human CDK12 wt/CycK (setting [5]); 496 nM at Human CDK7/CycH/MAT1; 110 nM in the assay with A673 cells (A673, Table 2); 110 nM with A673 cells (A673, Table 3). On Human CDK12 wt/CycK (Table 1), the CDK7/CDK12 came out at 27.6. Further, the “Cyclin K Degrader Activity” value with Cyclin K [2] is given as “−”. Further, the “Ratio of Biochemical Potency” value in the assay with A673 cells (Table 2) and in the assay with A673 cells (setting [6]) was 0.16 each time.

As to `CN(C)C/C=C/C(=O)Nc1ccc(C(=O)N2CCC[C@@H](Nc3ncc(Cl)c(-c4c[nH]c5ccccc45)n3)C2)cc1` [THZ-531], the “Cyclin K Degrader Activity” value in the assay on Cyclin K [1] (Table 2, derived from published data in HeLa and A549 cells) is “−”. Besides, in the assay on Cyclin K [1], the “Cyclin K degradation (in words)” value is given as “not cyclin K degraders; also recorded: did not cause cyclin K degradation”. For the same compound, in the assay with HeLa and A549 cells (derived from published data in HeLa and A549 cells, read-out: Cellular Potency IC50), the IC50 is 210 nM. Also, the “Ratio of Biochemical Potency” value in the assay with HeLa and A549 cells (derived from published data) is listed as 0.74.
